{"source": "patent US20100120690A1", "about": "“Polypeptides Having Antimicrobial Activity and Polynucleotides Encoding Same” (Novozymes Adenium Biotech A/S, priority 2005, published 2010)"}
{"test_system": "Staphylococcus carnosus ATCC51365", "assay": "Yeast screening assay: radial diffusion assay of yeast supernatants", "type": "cell-based", "parameters": "key: An activity of 3 is better than Plectasin; An activity of 2 corresponds to the activity of Plectasin; 1 is worse than Plectasin", "settings": "yeast supernatant, clearing zone in radial diffusion assay", "protocol": "A range of antimicrobial polypeptides, which are variants of SEQ ID NO: 1 (Plectasin), were tested for antimicrobial activity by expressing them in S. cerevisae and screening the supernatant of the yeast transformants for antimicrobial activity against Staphylococcus carnosus ATCC51365.\nRadial Diffusion Assay was carried out as described in Methods in Molecular Biology, Vol. 78, Antibacterial peptide protocol, William M. Shafer, Human Press.\n200-300 yeast transformant colonies were plated on 14 cm round plates containing 25 mL SC growth medium supplemented with 1.5% galactose, 0.5% glucose and 1.5% agarose. Plates were incubated for three hours at room temperature, overlaid with 25 mL of the same growth medium and allowed to grow for three days at 30° C. Then the plates were overlaid with 25 mL of LB growth medium containing 1.5% agarose and 10^5 cells of the indicator strain Staphylococcus carnosus and incubated at 30° C. overnight to allow growth of the bacterial cells. Next day, the plates were stained with 1.5 mM MTT to facilitate visualization of the clearing zones.\nYeast colonies creating clearing zones were transferred to microtiter plates containing 200 micro-L of SC growth medium supplemented with 2% glucose and ampicillin (100 mg/L). Such plates designated “master plates” were incubated for 2 days at 30° C. with shaking at 450 rpm to allow yeast growth.\n10 micro-L SC growth medium from each well of the master plates were transferred to new microtiter plates containing 200 micro-L SC growth medium with 1.5% galactose and 0.5% glucose. These plates were called daughter plates and were incubated for 3 days at 30° C. under 450 rpm shaking to allow yeast growth and peptide synthesis.\nFinally a Radial Diffusion Assay (RDA) was performed following the protocol described in Methods in Molecular Biology to analyse and quantify the antimicrobial activity of the yeast supernatants against S. carnosus.\nBriefly, 30 mL of minimal underlay medium containing 1% agarose and 5×10^5 cfu/mL of S. carnosus was poured in an omnitray plate (Nunc, 242811). A Nunc TSP plate (#445497) was inserted immediately on the plate to allow a 96 well pattern formation. Once the media had solidified, the TSP plate was removed and 10 micro-L of yeast supernatant samples were applied on the holes. Plates were incubated 3 hours at 37° C. and overlaid with 15 mL of LB agar growth medium. Finally, plates were incubated overnight at 37° C. and coloured with 1.5 mM MTT to visualize the clearing zones.\nInspection and measurements of the clearing zones was performed on the plates. The corresponding yeast clones resulting in clearing zones of similar or increased size than the clones encoding for wild type plectasin were picked from the master plates and transferred to agar plates containing SC growth medium with 2% glucose and ampicillin (100 mg/L). Such plates were incubated for further 2 days at 30° C. to allow yeast growth. Subsequently, colony PCR was performed followed by sequence analysis to identify amino acid changes in the plectasin sequence.\nAn activity of 2 corresponds to the activity of Plectasin. An activity of 3 is better than Plectasin, and 1 is worse than Plectasin."}
{"sequence": "GFGCNGPWDERDIQCHNHCKSIKGYKGGYCAKGGFVCKCY [D11R + M13I]", "Activity (antimicrobial activity relative to the activity of plectasin)": 3}
{"sequence": "GFGCNGPWDEDDMQCHNHCKSIKIYKGGYCAKGGFVCKCY [Mutation G24I]", "Activity (antimicrobial activity relative to the activity of plectasin)": 2}
{"sequence": "GFGCNGPWDEDDMQCHNHCKSIKGYKGGYCARGKFVCKCY [K32R + G34K]", "Activity (antimicrobial activity relative to the activity of plectasin)": 2}
{"sequence": "GFGCNGPWDQDDMQCHNHCKSIKGYKGGYCAKGGFVCKCY [Mutation E10Q]", "Activity (antimicrobial activity relative to the activity of plectasin)": 2}
{"sequence": "GFGCNGPWDEDDMQCHNHCKSVKGYKGGYCAKGGFVCKCY [Mutation I22V]", "Activity (antimicrobial activity relative to the activity of plectasin)": 3}
{"sequence": "GFGCNGPWDEDDMQCHNHCKSIKGYKGGWCAKGGFVCKCY [Mutation Y29W]", "Activity (antimicrobial activity relative to the activity of plectasin)": 3}
{"sequence": "GFGCNGPWDEDDMQCHNHCKSIKGYKGGYCAKNGFVCKCY [Mutation G33N]", "Activity (antimicrobial activity relative to the activity of plectasin)": 2}
{"sequence": "GFGCNGPWDEDDMKCHNHCKSIKGYKGGYCAKGGFVCKCY [Mutation Q14K]", "Activity (antimicrobial activity relative to the activity of plectasin)": 2}
{"sequence": "GFGCNGPWDEDDMQCHNHCKSIKGYKGGYCATGGFVCKCY [Mutation K32T]", "Activity (antimicrobial activity relative to the activity of plectasin)": 2}
{"sequence": "GFGCNGPWDEDDMQCHNHCKSIKGYKGGYCYKGGFVCKCY [Mutation A31Y]", "Activity (antimicrobial activity relative to the activity of plectasin)": 3}
{"sequence": "GFGCNGPWDEDDMQCHNHCKSIKGQKGGYCAKGGFVCKCY [Mutation Y25Q]", "Activity (antimicrobial activity relative to the activity of plectasin)": 2}
{"sequence": "GFGCNGPWREDDMQCHNHCKSIKGYKGGYCAKGGFVCKCY [Mutation D9R]", "Activity (antimicrobial activity relative to the activity of plectasin)": 2}
{"sequence": "GFGCNGPWDEDDMQCHNHCKSIKAYKGGYCAKGGFVCKCY [Mutation G24A]", "Activity (antimicrobial activity relative to the activity of plectasin)": 2}
{"sequence": "GFGCNGPWDEDDMQCHNHCKSIKGYKGGFCARGGFVCKCY [Y29F + K32R]", "Activity (antimicrobial activity relative to the activity of plectasin)": 2}
{"sequence": "GFGCNGKWDEDDMQCHNHCKSIKGYKGGYCAKGGFVCKCY [Mutation P7K]", "Activity (antimicrobial activity relative to the activity of plectasin)": 3}
{"sequence": "GFGCNGPWDEDDMQCHNHCKSIKGYKGGYCARGGFVCKCY [Mutation K32R]", "Activity (antimicrobial activity relative to the activity of plectasin)": 2}
{"sequence": "GFGCNGPWDEDDMQCHNHCKSIKGYKGGMCAKGGFVCKCY [Mutation Y29M]", "Activity (antimicrobial activity relative to the activity of plectasin)": 2}
{"sequence": "GFGCNGPWFEDDMQCHNHCKSIKGYKGGYCAKGGFVCKCY [Mutation D9F]", "Activity (antimicrobial activity relative to the activity of plectasin)": 3}
{"sequence": "GFGCNGPWDEDDMQCHNHCKSIKGYKGGYCAKGGWVCKCY [Mutation F35W]", "Activity (antimicrobial activity relative to the activity of plectasin)": 2}
{"sequence": "GFGCNGPWDEDDMQCHNHCKSIKGYKGGYCEKGGFVCKCY [Mutation A31E]", "Activity (antimicrobial activity relative to the activity of plectasin)": 2}
{"sequence": "GFGCNGPWDEDDFQCHNHCKSIKGYKGGYCAKGGFVCKCY [Mutation M13F]", "Activity (antimicrobial activity relative to the activity of plectasin)": 2}
{"sequence": "GFGCNGPWDEDDMQCHNHCKSIKGYKGGYCAKQGFVCKCY [Mutation G33Q]", "Activity (antimicrobial activity relative to the activity of plectasin)": 3}
{"sequence": "GFGCNGPWDEDDMQCHNHCKSIKQYKGGYCAKGGFVCKCY [Mutation G24Q]", "Activity (antimicrobial activity relative to the activity of plectasin)": 2}
{"sequence": "GFGCNGPWDEDDMQCHNHCKSIKNYKGGYCAKGGFVCKCY [Mutation G24N]", "Activity (antimicrobial activity relative to the activity of plectasin)": 3}
{"sequence": "GFGCNGPWDEDDMQCHNHCKSIKGYKGGYCIKGGFVCKCY [Mutation A31I]", "Activity (antimicrobial activity relative to the activity of plectasin)": 2}
{"sequence": "GFGCNGPWIEDDMQCHNHCKSIKGYKGGYCAKGGFVCKCY [Mutation D9I]", "Activity (antimicrobial activity relative to the activity of plectasin)": 2}
{"sequence": "GFGCNGPWDEDDMQCHNHCKSIKGYKGGYCSKGGFVCKCY [Mutation A31S]", "Activity (antimicrobial activity relative to the activity of plectasin)": 2}
{"sequence": "GFGCNGPWDEDDMTCHNHCKSIKGYKGGYCAKGGFVCKCY [Mutation Q14T]", "Activity (antimicrobial activity relative to the activity of plectasin)": 2}
{"sequence": "GFGCNGPWHEDDMQCHNHCKSIKGYKGGYCAKGGFVCKCY [Mutation D9H]", "Activity (antimicrobial activity relative to the activity of plectasin)": 3}
{"sequence": "GFGCNGPWDEDDMQCHNHCKSIKGYFGGYCAKGGFVCKCY [Mutation K26F]", "Activity (antimicrobial activity relative to the activity of plectasin)": 2}
